Test results from patent US20120003156A1, “METHODS FOR TREATING NEOPLASIA BY INHIBITING LACTATE DEHYDROGENASE AND/OR NICOTINAMIDE PHOSPHORIBOSYLTRANSFERASE” (The Johns Hopkins University, priority 2008, published 2012).
Entries after “also recorded” stand apart in the source; their conditions may differ.

What was measured:
LDHA = LDHA (Homo sapiens, UniProt P00338); test: Affinity chromatography of LDHA on Sepharose-immobilized FX11 or E; assay type: binding; details: P493 cell lysate; elution with 1 mM NADH
Experimental: FX11 and E molecules which contain carboxyl groups were coupled to immobilized diaminodipropylamine (DADPA) resins according to the manufacturer's instructions (Pierce). […] An equal amount of cell lysate was loaded onto these beads and eluted with 1 mM NADH after washing with 6 column volumes of high salt (1 M NaCl). LDHA activity was performed from the eluates to assess the binding affinity of the molecules with LDHA.

GAPDH = GAPDH (Homo sapiens, UniProt P04406); test: GAPDH activity and Ki; assay type: biochemical
GAPDH, sequence (P04406 whole entry): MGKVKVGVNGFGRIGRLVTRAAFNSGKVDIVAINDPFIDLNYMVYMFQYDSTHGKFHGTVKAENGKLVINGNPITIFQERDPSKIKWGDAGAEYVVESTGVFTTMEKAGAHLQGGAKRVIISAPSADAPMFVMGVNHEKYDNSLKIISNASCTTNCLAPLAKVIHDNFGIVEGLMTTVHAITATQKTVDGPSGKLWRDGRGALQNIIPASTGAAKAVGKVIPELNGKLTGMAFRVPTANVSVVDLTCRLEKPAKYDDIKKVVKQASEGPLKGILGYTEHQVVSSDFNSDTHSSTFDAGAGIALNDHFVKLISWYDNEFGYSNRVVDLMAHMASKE
Experimental: (§3) The reaction velocity of purified human LDHA or GAPDH was determined by a decrease or increase in absorbance at 340 nm of NADH, respectively. […] The GADPH activity was assessed using the protocol described in Worthington Enzyme Manual: http://www.worthington-biochem.com/GAPD/assay.html with varying concentrations of NAD^+. Ki values were determined from double-reciprocal plots by linear regression analysis using SigmaPlot Enzyme Kinetic software.

P493 cells [1] = test: NADH/NAD+ ratio colorimetric assay; assay type: cell-based, human; details: 9 μM FX11, 24 hours
Experimental: The NADH/NAD^+ ratios were assayed using EnzyChrom™ NADH/NAD^+ colorimetric Assay Kit, from BioAssay Systems. This assay is based on an enzyme-catalyzed kinetic reaction where a tetrazolium dye 3-[4,5-dimethylthiazol-2-yl]-2,5-diphenyltetrazolium bromide (MTT) is reduced by NADH in the presence of phenazine methosulfate (PMS). The intensity of the reduced product color, measured at 565 nm, is proportionate to the NADH/NAD^+ concentration in the sample. […] After washing with cold PBS, cells were homogenized in 100 μl of NAD^+ or NADH extraction buffer. Following heat extract at 60° C. for 5 minutes, the assay was performed according to the manufacturer's instructions.

P493 cells [2] = test: Lactate production and glucose utilization, ABL700 Radiometer analyzer; assay type: cell-based, human
Experimental: Lactate production was measured by the ABL700 Radiometer analyzer according to the manufacturer's instructions. 10^5 cells were grown at 37° C. in a 5% CO2, 95% air incubator and treated with 9 μM FX11 or 0.5 nM FK866 for 24 hours.

MCF-7 cells = test: Cell population growth; assay type: cell-based, human; details: dose-response
Experimental: (§1) P493 human lymphoma B cells were maintained in RPMI 1640 with 10% fetal bovine serum (FBS) and 1% penicillin-streptomycin. P198 human pancreatic cancer cells; RCC4, RCC4-VHL human renal carcinoma cells; MCF-7 and MDA-MB-453 breast cancer cells were maintained in high glucose (4.5 mg/ml) DMEM with 10% FBS and 1% penicillin-streptomycin. Non-hypoxic cells (20% O2) were maintained at 37° C. in a 5% CO2, 95% in an air incubator. Hypoxic cells (1% O2) were maintained in a controlled atmosphere chamber (PLAS-LABS, Lansing, Mich.) with a gas mixture containing 1% O2, 5% CO2, and 94% N2 at 37° C. for the indicated time. Bright live cells were counted daily in a hemacytometer using trypan blue dye to exclude dead cells. All cells were grown at a concentration of 10^5 cells/ml. All drugs treatment began at day 0.

MDA-MB-453 cells = test: Cell population growth; assay type: cell-based, human; details: dose-response
Experimental: as §1

RCC4 cells = test: Cell population growth; assay type: cell-based, human; details: dose-response
Experimental: as §1

RCC4-VHL cells = test: Cell population growth; assay type: cell-based, human; details: dose-response
Experimental: as §1

[3] = system: Ramos Burkitt lymphoma cells; test: Cell population growth; assay type: cell-based, human
[4] = system: human pancreatic cell line E3LZ10.7; test: Cell growth; assay type: cell-based
[5] = system: human glioblastoma U-87-MG cells; test: Cell growth; assay type: cell-based
[6] = system: P493 human lymphoma B cells; test: Human P493 B cell lymphoma xenograft; assay type: in vivo, SCID mice
Experimental: (§2) The animal studies were performed according to the protocols approved by the Animal Care and Use Committee at Johns Hopkins University. In order to generate tumorigenesis study in xenograft model, 2.0×10^7 P493 human lymphoma B cells or 5×10^6 human pancreatic cancer cells were injected subcutaneously into male SCID mice (NCI) or athymic Hsd: RH-Foxn1nu mice (Harlan), respectively, as previously described (Feldmann et al., 2007; Gao et al., 2009; Gao et al., 2007). When the tumor volume reached 200 mm^3, groups of 5 mice were injected with control 2% DMSO or 42 μg FX11 and/or 100 μg FK866. The tumor volumes were measured using a digital caliper after 4, 7 and 10 days of treatment. Tumor volumes were calculated using the following formula: [length (mm)×width (mm)×width (mm)×0.52]. The entire experiment was repeated seven times.

[7] = system: P198 human pancreatic cancer xenografts; test: Human P198 pancreatic cancer xenograft; assay type: in vivo, athymic nu mice; details: treatment from 200 mm^3; daily IP 42 μg FX11; compared with E
Experimental: as §2

[8] = Expected initial serum level after IP injection; assay type: in vivo; details: 42 μg IP; assuming uniform and immediate distribution in the vascular system
Experimental: Although the renewed interest in the Warburg effect is accompanied by a greater understanding of its molecular underpinnings, targeting it for therapeutic purposes has become a major challenge. […] Of note, primary human lymphomas have been documented to have elevated LDHA expression particularly in hypoxic regions. […] A desired FX11 dose of 42 μg for daily intraperitoneal (IP) injection was calculated. An initial serum level of ˜100 μM was expected, assuming a uniform and immediate distribution in the vascular system without accounting for the drug half-life or drug metabolism.

[9] = biological target: purified human liver LDHA (Homo sapiens, UniProt P00338); test: Determination of Ki and enzyme kinetics of LDHA; details: NADH as substrate; Lineweaver-Burk plots
Experimental: as §3

[10] = Side effects, hematology and blood chemistry in treated animals

CCCc1c(O)c(O)c(C(=O)O)c2cc(Cc3ccccc3)c(C)cc12 [FX11, 2,3-dihydroxy-6-methyl-7-(phenylmethyl)-4-propylnaphthalene-1-carboxylic acid]
LDHA activity eluted from affinity beads relative to beads with immobilized E (LDHA): 4 fold | GAPDH activity (GAPDH; 74 μM): not inhibited | Ki (GAPDH; GAPDH, Michaelis-Menten kinetics, estimated): > 300 µM | NADH/NAD+ ratio (P493 cells [1]): increase | cellular production of lactate (P493 cells [2]; 9 μM FX11, 24 hours): significantly diminished | glucose utilization (P493 cells [2]; FX11 treatment for 24 hours): reduction of glucose utilization | cell population growth / sensitivity (MCF-7 cells): inhibited cell population growth; also recorded: more sensitive | cell population growth (MDA-MB-453 cells): inhibited cell population growth | cell population growth / sensitivity (RCC4 cells): inhibited cell population growth; also recorded: more sensitive | cell population growth (RCC4-VHL cells): inhibited cell population growth | cell population growth inhibition [3]: sensitive to FX11 inhibition in a manner that is diminished by glucose withdrawal; also recorded: dose-dependent manner | growth inhibition [4]: dose-dependent manner | growth inhibition [5]: dose-dependent manner | tumor growth of palpable P493 xenografts ([6]; daily IP, 42 μg FX11 or 0.8 mg doxycycline, vs vehicle 2% DMSO): remarkable inhibition of tumor growth | tumor growth of established P493 lymphoma xenografts ([6]; treatment from 200 mm^3, daily IP 42 μg FX11 and/or 100 μg FK866, ten days): cytostatic, but significant effect; also recorded: effectively inhibited | tumor growth of P198 pancreatic tumor xenografts [7]: significant response; also recorded: effectively inhibited | initial serum level [8]: ~100 µM | mode of inhibition of LDHA [9]: competitive inhibitors; also recorded: competitive inhibitor of NADH | kidney (BUN, creatinine) or liver (aspartate aminotransferase, alanine aminotransferase, alkaline phosphatase) toxicity by blood chemistries ([10]; doses that affected tumor growth in vivo): did not reveal any evidence | hematology (cytopenia) ([10]; single agent, five animals studied): no cytopenia | body weight ([10]; treated animals): did not lose weight | lethargy, ability to eat and drink ([10]; treated animals): no lethargy or the inability to eat and drink
